“Also recorded” adds a separate entry of the source.
Legend:
[1] = biological target: T1, human RBP4 (Homo sapiens, UniProt P02753); assay: Scintillation proximity (SPA) RBP4 binding assay; settings: for IC50: 10 nM 3H-retinol, 50 nM biotinylated RBP4, each value one experiment, read-out: IC50 in SPA-based RBP4 binding assay
T1 construct: Untagged human RBP4 purified from urine of tubular proteinuria patients; purchased Fitzgerald Industries International; host or cells: human urine (tubular proteinuria patients)
Procedure: Untagged human RBP4 purified from urine of tubular proteinuria patients was purchased from Fitzgerald Industries International. It was biotinylated using the EZ-Link Sulfo-NHS-LC-Biotinylation kit from Pierce following the manufacturer's recommendations. Binding experiments were performed in 96-well plates (OptiPlate, PerkinElmer) in a final assay volume of 100 μl per well in SPA buffer (1×PBS, pH 7.4, 1 mM EDTA, 0.1% BSA, 0.5% CHAPS). The reaction mix contained 10 nM ^3H-Retinol (48.7 Ci/mmol; PerkinElmer), 0.3 mg/well Streptavidin-PVT beads, 50 nM biotinylated RBP4 and a test compound. Nonspecific binding was determined in the presence of 20 μM of unlabeled retinol. The reaction mix was assembled in the dark under dim red light. The plates were sealed with clear tape (TopSeal-A: 96-well microplate, PerkinElmer), wrapped in the aluminum foil, and allowed to equilibrate 6 hours at room temperature followed by overnight incubation at +4° C. Radiocounts were measured using a TopCount NXT counter (Packard Instrument Company).

[2] = biological target: T2, RBP4-TTR interaction (Homo sapiens, UniProt P02753); assay: HTRF/TR-FRET assay for retinol-dependent RBP4-TTR interaction (1 μM retinol); type: biochemical; set-up: human RBP4 fragment (amino acids 19-201) was expressed in the Gold(DE3)pLysS E. coli strain; made in house; host or cells: E. coli Gold(DE3)pLysS (Stratagene), pMAL-c4x vector; settings: for IC50: in the presence of 1 μM retinol, each value one experiment, read-out: IC50 in HTRF-based retinol-dependent RBP4-TTR interaction assay
Text: Bacterially expressed MBP-RBP4 and untagged TTR were used in this assay. For the use in the TR-FRET assay the maltose binding protein (MBP)-tagged human RBP4 fragment (amino acids 19-201) was expressed in the Gold(DE3)pLysS E. coli strain (Stratagene) using the […] vector. Following cell lysis, recombinant RBP4 was purified from the soluble fraction using the ACTA FPLC system (GE Healthcare) equipped with the 5-ml the MBP Trap HP column. Human untagged TTR was purchased from Calbiochem. Untagged TTR was labeled directly with Eu^3+ Cryptate-NHS using the HTRF Cryptate Labeling kit from CisBio following the manufacturer's recommendations. HTRF assay was performed in white low volume 384 well plates (Greiner-Bio) in a final assay volume of 16 μl per well. The reaction buffer contained 10 mM Tris-HCl pH 7.5, 1 mM DTT, 0.05% NP-40, 0.05% Prionex, 6% glycerol, and 400 mM KF. Each reaction contained 60 nM MBP-RBP4 and 2 nM TTR-Eu along with 26.7 nM of anti-MBP antibody conjugated with d2 (Cisbio). Titration of test compounds in this assay was conducted in the presence of 1 μM retinol. All reactions were assembled in the dark under dim red light and incubated overnight at +4° C. wrapped in aluminum foil. TR-FRET signal was measured in the SpectraMax M5e Multimode Plate Reader (Molecular Device). Fluorescence was excited at 337 nm and two readings per well were taken: Reading 1 for time-gated energy transfer from Eu(K) to d2 (337 nm excitation, 668 nm emission, counting delay 75 microseconds, counting window 100 microseconds) and Reading 2 for Eu(K) time-gated fluorescence (337 nm excitation, 620 nm emission, counting delay 400 microseconds, counting window 400 microseconds). The TR-FRET signal was expressed as the ratio of fluorescence intensity: Flu665/Flu620×10,000.

[3] = biological target: T2, RBP4-TTR interaction; assay: TR-FRET (HTRF) assay for antagonists of retinol-induced RBP4-TTR interaction, agonist and antagonist mode (Example 2); type: biochemical; set-up: made in house; host or cells: E. coli; settings: agonist mode, dose titration
Text: TR-FRET (Time-Resolved Fluorescence Resonance Energy Transfer) is an assay format that can be used in characterization of compounds affecting protein-protein interactions (31-33). […] In the presence of retinol, RBP4-TTR interaction induces FRET that can be registered as increased ratio of […] fluorescence signals. Binding of a desired RBP4 antagonist displaces retinol and induces hindrance for RBP4-TTR interaction resulting in the decreased FRET signal (FIG. 7).
The assay was developed using E. coli-expressed MBP-tagged RBP4 and commercially available TTR labeled directly with Eu3+ cryptate. In addition to MBP-RBP4 and Eu3+ (K)-TTR, a detector reagent anti-MBP-d2 was present in the mix. The assay was first optimized in the agonist mode; sensitivity and dynamic range of the assay was […] in respect to RBP4, TTR and detection reagent concentrations.

SMILES	Antagonism of RBP4-TTR interaction in vitro (in words) [2]	other results
O=C(c1c[nH]cn1)N1CCC(c2ccccc2C(F)(F)F)CC1 [Compound 48]	antagonize retinol-dependent RBP4-TTR interaction	Binding to RBP4 in vitro (in words) [1]: bind to RBP4; IC50 [1]: 5.68 nM; IC50 [2]: 106 nM
Cn1cnc(C(=O)N2CCC(c3ccccc3C(F)(F)F)CC2)c1 [Compound 49]	antagonize RBP4-TTR interaction in vitro at biologically significant concentrations	
O=C(c1cn(Cc2ccccc2)cn1)N1CCC(c2ccccc2C(F)(F)F)CC1 [Compound 50]	antagonize RBP4-TTR interaction in vitro at biologically significant concentrations	
Cn1cncc1C(=O)N1CCC(c2ccccc2C(F)(F)F)CC1 [Compound 51]	antagonize RBP4-TTR interaction in vitro at biologically significant concentrations	
Cn1nc(C(F)(F)F)cc1C(=O)N1CCC(c2ccccc2C(F)(F)F)CC1 [Compound 52]	antagonize RBP4-TTR interaction in vitro at biologically significant concentrations	
O=C(c1cc(C(F)(F)F)[nH]n1)N1CCC(c2ccccc2C(F)(F)F)CC1 [Compound 53]	antagonize RBP4-TTR interaction in vitro at biologically significant concentrations	
O=C(c1nccs1)N1CCC(c2ccccc2C(F)(F)F)CC1 [Compound 54]	antagonize RBP4-TTR interaction in vitro at biologically significant concentrations	
O=C(c1ccco1)N1CCC(c2ccccc2C(F)(F)F)CC1 [Compound 55]	antagonize RBP4-TTR interaction in vitro at biologically significant concentrations	
O=C(O)c1cc(-c2ccccc2)ccc1NC(=O)N1CCC(c2ccccc2C(F)(F)F)CC1 [Compound 56]	antagonize RBP4-TTR interaction in vitro at biologically significant concentrations	
O=C(O)c1cc(-c2ccc(F)cc2)ccc1NC(=O)N1CCC(c2ccccc2C(F)(F)F)CC1 [Compound 57]	antagonize RBP4-TTR interaction in vitro at biologically significant concentrations	
CS(=O)(=O)c1ccc(-c2ccc(NC(=O)N3CCC(c4ccccc4C(F)(F)F)CC3)c(C(=O)O)c2)cc1 [Compound 58]	antagonize RBP4-TTR interaction in vitro at biologically significant concentrations	
COC(=O)c1ccccc1NC(=O)N1CCC(c2ccccc2C(F)(F)F)CC1 [Compound 59]	antagonize RBP4-TTR interaction in vitro at biologically significant concentrations	
COC(=O)c1ccc(Cl)cc1NC(=O)N1CCC(c2ccccc2C(F)(F)F)CC1 [Compound 60]	antagonize RBP4-TTR interaction in vitro at biologically significant concentrations	
COC(=O)c1cc(Br)ccc1NC(=O)N1CCC(c2ccccc2C(F)(F)F)CC1 [Compound 61]	antagonize RBP4-TTR interaction in vitro at biologically significant concentrations	
O=C(O)c1ccccc1NC(=O)N1CCN(c2ncncc2C(F)(F)F)CC1 [Compound 63]	antagonize RBP4-TTR interaction in vitro at biologically significant concentrations	
CS(=O)(=O)c1ccc(NC(=O)N2CCC(c3ccccc3C(F)(F)F)CC2)c(C(=O)O)c1 [Compound 64]	antagonize retinol-dependent RBP4-TTR interaction; also recorded: antagonize RBP4-TTR interaction in vitro at biologically significant concentrations	Binding to RBP4 in vitro (in words) [1]: bind to RBP4; IC50 [1]: 49.8 nM; IC50 [2]: 1270 nM
O=C(O)c1cnccc1NC(=O)N1CCC(c2ccccc2C(F)(F)F)CC1 [Compound 65]	antagonize retinol-dependent RBP4-TTR interaction; also recorded: antagonize RBP4-TTR interaction in vitro at biologically significant concentrations	Binding to RBP4 in vitro (in words) [1]: bind to RBP4; IC50 [1]: 19.9 nM; IC50 [2]: 199 nM
CC1=C(/C=C/C(C)=C/C=C/C(C)=C/C(=O)Nc2ccc(O)cc2)C(C)(C)CCC1 [fenretinide, N-(4-hydroxy-phenyl)retinamide]		Induction of RBP4-TTR interaction [3]: did not induce RBP4-TTR interaction

Reference: patent US9333202B2, “Non-retinoid antagonists for treatment of age-related macular degeneration and stargardt disease” (THE TRUSTEES OF COLUMBIA UNIVERSITY IN THE CITY OF NEW YORK, priority 2012, dated 2016)
